Key:
c-myb RNA = test: Inhibition of oncogene c-myb RNA in ML-1 cells (northern blot); format: cell-based; details: Homo sapiens, ML1, 10 ng/ml, P <0.01
Description: (§1) Cells were maintained in suspension culture in RPMI 1640 medium supplemented with 7.5% heat-inactivated FBS, Cells growth and viability were assayed by hemocytometer using trypan blue dye exclusion. RNA was isolated by the CsCl gradient modification. RNA pellets were washed twice by reprecipitation in ethanol and quantitated by absorbency at 260 nM. RNA analyzed by electrophoresis of 15 μg of RNA through 1.2% agarose formaldehyde gels followed by northern blot transfer to nitrocellulose.
(§2) Single-standard uniformly labeled DNA probes were prepared. Probe of c-myc was a 1.7 Kb cla-Eco RI restriction fragment containing the 3'exon region of human c-myc and probe of c-myb was 1.0 Kb myb-specific Bam HI fragment. Probes for n-ras contained DNA fragments using a modification of the PCR technique. Probes for myb, myc and n-ras were isolated by electrolution. The isolated fragments were labeled to high specific activity with [α^32 P]-dCTP (3000 ci/mmol). Prehybridization of the filter was performed. The hybridization mixer contained 50,000 cpm of probe. The probes were hybridized at 58° C. in 15 mM NaCl, 1.5 nM sodium citrate for 3 hours. After hybridization, they were exposed to XAR-5 film. Oncogene expression was quantitated by densitometer scanning of the autoradiography.

c-myc RNA = test: Inhibition of oncogene c-myc RNA in ML-1 cells (northern blot); format: cell-based; details: Homo sapiens, ML1, 10 ng/ml, P <0.01
Description: as §1, §2

n-ras RNA = test: Inhibition of oncogene n-ras RNA in ML-1 cells (northern blot); format: cell-based; details: Homo sapiens, ML1, 10 ng/ml, P <0.01
Description: as §1, §2

mouse epidermis = details: in words; cited from earlier work
[1] = tested on: advanced ovarian and breast cancer; details: clinical trials, late 1980s and early 1990s; cited from earlier work

Compound	inhibition at 0.01 µg/mL (c-myb RNA)	inhibition at 0.01 µg/mL (c-myc RNA)	inhibition at 0.01 µg/mL (n-ras RNA)	effect on [3H] thymidine incorporation in mouse epidermis (mouse epidermis)	clinical activity against advanced ovarian and breast cancer [1]
O=C(O)[C@H]1O[C@@H](Oc2cc3oc(-c4ccccc4)cc(=O)c3c(O)c2O)[C@H](O)[C@@H](O)[C@@H]1O [BA, Baicalin]	24.4 ± 3%	29.3 ± 3.4%	20.6 ± 3%		
COc1ccc2cc3[n+](cc2c1OC)CCc1cc2c(cc1-3)OCO2 [BE, Berberine]	52 ± 5.8%	50.5 ± 6.1%	30.2 ± 3.5%		
CCCCCCCCCCCCCC(=O)O[C@@H]1[C@@H](C)[C@@]2(O)[C@@H](C=C(CO)C[C@]3(O)C(=O)C(C)=C[C@@H]23)[C@@H]2C(C)(C)[C@]12OC(C)=O [TPA, tetradecanoyphorbol-13-acetate]				remarkable increase	
CC(=O)O[C@H]1C(=O)[C@@]2(C)[C@H]([C@H](OC(=O)c3ccccc3)[C@]3(O)C[C@H](OC(=O)[C@H](O)[C@@H](NC(=O)c4ccccc4)c4ccccc4)C(C)=C1C3(C)C)[C@]1(OC(C)=O)CO[C@@H]1C[C@@H]2O [Taxol]					impressive clinical activities
